Laboratory results: patent US20240158348A1, “HERBICIDAL CYCLIC AMIDES N-SUBSTITUTED WITH A HALOALKYLSULFONYLANILIDE GROUP” (FMC Corporation, priority 2021, published 2024)

Tests used:
Type in all cases: in vivo
[1] = tested on: corn (Zea mays); assay: Test C preemergence, corn; settings: 0 is no effect, 100 is complete control
Method in brief: (§1)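 Ratings run from 0, meaning no effect, up to 100, meaning complete control, judged by eye against untreated plants. Treatment was a directed soil spray before emergence or a postemergence spray on 2–10 cm seedlings, with evaluation 10 or 12 days later.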

[2] = tested on: foxtail, giant (giant foxtail, Setaria faberi); assay: Test C preemergence, giant foxtail; settings: 0 is no effect, 100 is complete control
Method in brief: (§2)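 Herbicidal effect was estimated visually on a 0–100 scale 10 or 12 days after spraying. Formulation: non-phytotoxic solvent mixture with surfactant. Timing: directed soil spray after sowing, or postemergence on seedlings bearing one or two leaves.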

[3] = tested on: goosegrass (Eleusine indica); assay: Test C preemergence, goosegrass; settings: 0 is no effect, 100 is complete control
Method in brief: as §1

[4] = tested on: pigweed, palmer (palmer amaranth, Amaranthus palmeri); assay: Test C postemergence, palmer amaranth; settings: for Pigweed, Palmer plant response rating: visual injury, 0 to 100 scale (0 no effect, 100 complete control); for Plant response rating (0 to 100 scale), Pigweed, Palmer: 0 is no effect, 100 is complete control
Method in brief: as §2

[5] = tested on: ragweed (common ragweed, Ambrosia artemisiifolia); assay: Test C postemergence, ragweed; settings: for Ragweed plant response rating: visual injury, 0 to 100 scale (0 no effect, 100 complete control); for Plant response rating (0 to 100 scale), Ragweed: 0 is no effect, 100 is complete control
Method in brief: as §2

[6] = tested on: soybean (Glycine max); assay: Test C postemergence, soybean; settings: for Soybean plant response rating: visual injury, 0 to 100 scale (0 no effect, 100 complete control); for Plant response rating (0 to 100 scale), Soybean: 0 is no effect, 100 is complete control
[7] = tested on: wheat (Triticum aestivum); assay: Test C postemergence, wheat; settings: for Wheat plant response rating: visual injury, 0 to 100 scale (0 no effect, 100 complete control); for Plant response rating (0 to 100 scale), Wheat: 0 is no effect, 100 is complete control
Method in brief: as §2

[8] = tested on: barnyardgrass (Echinochloa crusgalli); assay: Test D flooded paddy test, barnyardgrass; design: key: 0 = no effect, 100 = complete control; settings: 250 g ai/ha, Flood; applied to paddy water at 2-leaf stage; visual rating after 13 days; scale 0 (no effect) to 100 (complete control)
Method in brief: (§3)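 Plants were grown to the 2-leaf stage, then pots were flooded to 3 cm above soil and compounds applied directly into the paddy water, with that depth held throughout. After 13 days in a greenhouse, injury was visually rated against untreated controls on a 0–100 scale (0 no effect, 100 complete control).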

[9] = tested on: sedge, umbrella (small-flower umbrella sedge, Cyperus difformis); assay: Test D flooded paddy test, umbrella sedge; design: key: 0 = no effect, 100 = complete control; settings: 250 g ai/ha, Flood; applied to paddy water at 2-leaf stage; visual rating after 13 days; scale 0 (no effect) to 100 (complete control)
Method in brief: as §3

## Cc1cc(C)c(N2CCC(OCC3CC3(F)F)C2=O)cc1NS(=O)(=O)C(F)(F)F (centres unmarked) [Compound 41]
[1]; 31 g ai/ha Preemergence
  Plant response rating (0 to 100 scale), Corn: 90
[1]; 125 g ai/ha Preemergence
  Plant response rating (0 to 100 scale), Corn: 100
[2]; 31 g ai/ha Preemergence
  Plant response rating (0 to 100 scale), Foxtail, Giant: 100
[2]; 125 g ai/ha Preemergence
  Plant response rating (0 to 100 scale), Foxtail, Giant: 100
[3]; 31 g ai/ha Preemergence
  Plant response rating (0 to 100 scale), Goosegrass: 90
[3]; 125 g ai/ha Preemergence
  Plant response rating (0 to 100 scale), Goosegrass: 100
[4]; 31 g ai/ha Postemergence
  Pigweed, Palmer plant response rating: 50
[4]; 125 g ai/ha Postemergence
  Pigweed, Palmer plant response rating: 90
[5]; 31 g ai/ha Postemergence
  Ragweed plant response rating: 50
[5]; 125 g ai/ha Postemergence
  Ragweed plant response rating: 70
[6]; 31 g ai/ha Postemergence
  Soybean plant response rating: 90
[6]; 125 g ai/ha Postemergence
  Soybean plant response rating: 90
[7]; 31 g ai/ha Postemergence
  Wheat plant response rating: 60
[7]; 125 g ai/ha Postemergence
  Wheat plant response rating: 60
[8]
  Plant response rating, Barnyardgrass: 15
[9]
  Plant response rating, Sedge, Umbrella: 70

## Cc1cc(C)c(N(C(=O)OC(C)C)S(=O)(=O)C(F)(F)F)cc1N1CCC(OC2CC2)C1=O (centres unmarked) [Compound 18]
[1]; 31 g ai/ha Preemergence
  Plant response rating (0 to 100 scale), Corn: 0
[1]; 125 g ai/ha Preemergence
  Plant response rating (0 to 100 scale), Corn: 0
[2]; 31 g ai/ha Preemergence
  Plant response rating (0 to 100 scale), Foxtail, Giant: 0
[2]; 125 g ai/ha Preemergence
  Plant response rating (0 to 100 scale), Foxtail, Giant: 0
[3]; 31 g ai/ha Preemergence
  Plant response rating (0 to 100 scale), Goosegrass: 0
[3]; 125 g ai/ha Preemergence
  Plant response rating (0 to 100 scale), Goosegrass: 0
[4]; 31 g ai/ha Postemergence
  Pigweed, Palmer plant response rating: 0
[4]; 125 g ai/ha Postemergence
  Plant response rating (0 to 100 scale), Pigweed, Palmer: 20
[5]; 31 g ai/ha Postemergence
  Ragweed plant response rating: 0
[5]; 125 g ai/ha Postemergence
  Plant response rating (0 to 100 scale), Ragweed: 50
[6]; 31 g ai/ha Postemergence
  Soybean plant response rating: 50
[6]; 125 g ai/ha Postemergence
  Plant response rating (0 to 100 scale), Soybean: 80
[7]; 31 g ai/ha Postemergence
  Wheat plant response rating: 0
[7]; 125 g ai/ha Postemergence
  Plant response rating (0 to 100 scale), Wheat: 0
[8]
  Plant response rating, Barnyardgrass: 0
[9]
  Plant response rating, Sedge, Umbrella: 0

## Cc1c(NS(=O)(=O)C(F)(F)F)cc(N2CCC(OC3CCC3)C2=O)c(C)c1F (centres unmarked) [Compound 25]
[1]; 31 g ai/ha Preemergence
  Plant response rating (0 to 100 scale), Corn: 30
[1]; 125 g ai/ha Preemergence
  Plant response rating (0 to 100 scale), Corn: 90
[2]; 31 g ai/ha Preemergence
  Plant response rating (0 to 100 scale), Foxtail, Giant: 100
[2]; 125 g ai/ha Preemergence
  Plant response rating (0 to 100 scale), Foxtail, Giant: 100
[3]; 31 g ai/ha Preemergence
  Plant response rating (0 to 100 scale), Goosegrass: 90
[3]; 125 g ai/ha Preemergence
  Plant response rating (0 to 100 scale), Goosegrass: 100
[4]; 31 g ai/ha Postemergence
  Pigweed, Palmer plant response rating: 70
[4]; 125 g ai/ha Postemergence
  Pigweed, Palmer plant response rating: 90
[5]; 31 g ai/ha Postemergence
  Ragweed plant response rating: 60
[5]; 125 g ai/ha Postemergence
  Ragweed plant response rating: 80
[6]; 31 g ai/ha Postemergence
  Soybean plant response rating: 100
[6]; 125 g ai/ha Postemergence
  Soybean plant response rating: 100
[7]; 31 g ai/ha Postemergence
  Wheat plant response rating: 50
[7]; 125 g ai/ha Postemergence
  Wheat plant response rating: 60
[8]
  Plant response rating, Barnyardgrass: 0
[9]
  Plant response rating, Sedge, Umbrella: 90

## Cc1c(NS(=O)(=O)C(F)(F)F)cc(N2CCC(OC3CC3)C2=O)c(C)c1F (centres unmarked) [Compound 26]
[1]; 31 g ai/ha Preemergence
  Plant response rating (0 to 100 scale), Corn: 60
[1]; 125 g ai/ha Preemergence
  Plant response rating (0 to 100 scale), Corn: 90
[2]; 31 g ai/ha Preemergence
  Plant response rating (0 to 100 scale), Foxtail, Giant: 90
[2]; 125 g ai/ha Preemergence
  Plant response rating (0 to 100 scale), Foxtail, Giant: 100
[3]; 31 g ai/ha Preemergence
  Plant response rating (0 to 100 scale), Goosegrass: 90
[3]; 125 g ai/ha Preemergence
  Plant response rating (0 to 100 scale), Goosegrass: 100
[4]; 31 g ai/ha Postemergence
  Pigweed, Palmer plant response rating: 70
[4]; 125 g ai/ha Postemergence
  Pigweed, Palmer plant response rating: 90
[5]; 31 g ai/ha Postemergence
  Ragweed plant response rating: 60
[5]; 125 g ai/ha Postemergence
  Ragweed plant response rating: 80
[6]; 31 g ai/ha Postemergence
  Soybean plant response rating: 70
[6]; 125 g ai/ha Postemergence
  Soybean plant response rating: 100
[7]; 31 g ai/ha Postemergence
  Wheat plant response rating: 60
[7]; 125 g ai/ha Postemergence
  Wheat plant response rating: 70
[8]
  Plant response rating, Barnyardgrass: 30
[9]
  Plant response rating, Sedge, Umbrella: 95

## Cc1c(N2CCC(OC3CC3)C2=O)cc(N(COC(=O)C(C)(C)C)S(=O)(=O)C(F)(F)F)c(C)c1F (centres unmarked) [Compound 23]
[1]; 31 g ai/ha Preemergence
  Plant response rating (0 to 100 scale), Corn: 10
[1]; 125 g ai/ha Preemergence
  Plant response rating (0 to 100 scale), Corn: 20
[2]; 31 g ai/ha Preemergence
  Plant response rating (0 to 100 scale), Foxtail, Giant: 20
[2]; 125 g ai/ha Preemergence
  Plant response rating (0 to 100 scale), Foxtail, Giant: 90
[3]; 31 g ai/ha Preemergence
  Plant response rating (0 to 100 scale), Goosegrass: 70
[3]; 125 g ai/ha Preemergence
  Plant response rating (0 to 100 scale), Goosegrass: 100
[4]; 31 g ai/ha Postemergence
  Pigweed, Palmer plant response rating: 50
[4]; 125 g ai/ha Postemergence
  Plant response rating (0 to 100 scale), Pigweed, Palmer: 70
[5]; 31 g ai/ha Postemergence
  Ragweed plant response rating: 90
[5]; 125 g ai/ha Postemergence
  Plant response rating (0 to 100 scale), Ragweed: 90
[6]; 31 g ai/ha Postemergence
  Soybean plant response rating: 60
[6]; 125 g ai/ha Postemergence
  Plant response rating (0 to 100 scale), Soybean: 60
[7]; 31 g ai/ha Postemergence
  Wheat plant response rating: 10
[7]; 125 g ai/ha Postemergence
  Plant response rating (0 to 100 scale), Wheat: 60
[8]
  Plant response rating, Barnyardgrass: 95
[9]
  Plant response rating, Sedge, Umbrella: 95
